Data as given in US20140179664A1, “Heterocyclyl Pyrimidine Analogues As JAK Inhibitors” (Cellzome Limited, priority 2011, published 2014).

Key:
Assay type in all cases: binding
[1] = biological target: T1, JAK1 (Homo sapiens, UniProt P23458); test: Kinobeads assay, JAK1; conditions: mixed Molt4/Ramos lysate, read-out: Inhibition values (IC50) JAK1
T1 construct: endogenous in cells; host or cells: Molt4 (ATCC CRL-1582) and Ramos (ATCC CRL-1596), mixed lysate 1:2
Protocol: After the incubation time the beads with captured proteins were separated from the lysate. Bound proteins were then eluted and the presence of JAK1, JAK2, JAK3 and TYK2 was detected and quantified using specific antibodies in a dot blot procedure and the Odyssey infrared detection system. Dose response curves for individual kinases were generated and IC50 values calculated.
(§1) 5×DP buffer: 250 mM Tris-HCl pH 7.4, 25% Glycerol, 7.5 mM MgCl2, 750 mM NaCl, 5 mM Na3VO4; filter the 5×DP buffer through a 0.22 μm filter and store in aliquots at −80° C. The 5×DP buffer is diluted with H2O to 1×DP buffer containing 1 mM DTT and 25 mM NaF.
Stock solutions of test compounds were prepared in DMSO. […] Starting with this solution a 1:3 dilution series (9 steps) was prepared. For control experiments (no test compound) a buffer containing 2% DMSO was used.
Cells were homogenized in a Potter S homogenizer in lysis buffer: 50 mM Tris-HCl, 0.8% NP40, 5% glycerol, 150 mM NaCl, 1.5 mM MgCl2, 25 mM NaF, 1 mM sodium vanadate, 1 mM DTT, pH 7.5. […] The material was dounced 10 times using a mechanized POTTER S, transferred to 50 mL falcon tubes, incubated for 30 minutes on ice and spun down for 10 minutes at 20,000 g at 4° C. (10,000 rpm in Sorvall SLA600, precooled). […] (33.500 rpm in Ti50.2, precooled). The supernatant was transferred again to a fresh 50 mL falcon tube, the protein concentration was determined by a Bradford assay (BioRad) and samples containing 50 mg of protein per aliquot were prepared. The samples were immediately used for experiments or frozen in liquid nitrogen and stored frozen at −80° C.
Cell lysate (approximately 50 mg protein per plate) was thawed in a water bath at room temperature and then stored on ice. […] The diluted cell lysate was stored on ice. Mixed Molt4/Ramos lysate was prepared by combining one volume of Molt4 lysate and two volumes of Ramos lysate (ratio 1:2).
Plates were sealed and incubated for 3 hours in a cold room on a plate shaker (Heidolph tiramax 1000) at 750 rpm. Afterwards the plate was washed 3 times with 230 μL washing buffer (1×DP 0.4% NP40). […] The eluate was frozen quickly at −80° C. and stored at −20° C.
Afterwards the membrane was washed twice for 10 minutes with PBS buffer containing 0.2% Tween 20 at room temperature. […] Afterwards the membrane was washed twice for 10 minutes each with 1×PBS buffer containing 0.2% Tween 20 at room temperature. Then the membrane was rinsed once with PBS buffer to remove residual Tween 20. The membrane was kept in PBS buffer at 4° C. and then scanned with the Odyssey instrument. Fluorescence signals were recorded and analysed according to the instructions of the manufacturer.

[2] = biological target: T2, JAK2 (Homo sapiens, UniProt O60674); test: Kinobeads assay, JAK2; conditions: mixed Molt4/Ramos lysate, read-out: Inhibition values (IC50) JAK2
T2 construct: endogenous in cells; host or cells: Molt4 (ATCC CRL-1582) and Ramos (ATCC CRL-1596), mixed lysate 1:2
Protocol: (§2) The compounds of the present invention as described in the previous examples were tested in a Kinobeads™ assay as described for ZAP-70 (WO-A 2007/137867). Briefly, test compounds (at various concentrations) and the affinity matrix with the immobilized aminopyrido-pyrimidine ligand 24 were added to cell lysate aliquots and allowed to bind to the proteins in the lysate sample. After the incubation time the beads with captured proteins were separated from the lysate. Bound proteins were then eluted and the presence of JAK1, JAK2, JAK3 and TYK2 was detected and quantified using specific antibodies in a dot blot procedure and the Odyssey infrared detection system. Dose response curves for individual kinases were generated and IC50 values calculated. Kinobeads™ assays for ZAP-70 (WO-A 2007/137867) and for kinase selectivity profiling (WO-A 2006/134056) have been previously described.
(§3) The affinity matrix was washed two times with 15 mL of lx DP buffer containing 0.2% NP40 (IGEPAL® CA-630, Sigma, #13021) and then resuspended in 1×DP buffer containing 0.2% NP40 (3% beads slurry).
as §1
(§4) Stock solutions of test compounds were prepared in DMSO. In a 96 well plate […] solution of diluted test compounds at 5 mM in DMSO were prepared. Starting with this solution a 1:3 dilution series (9 steps) was prepared. For control experiments (no test compound) a buffer containing 2% DMSO was used.
(§5) Molt4 cells (ATCC catalogue number CRL-1582) and Ramos cells (ATCC catalogue number CRL-1596) were grown in 1 L Spinner flasks (Integra Biosciences, #182101) in suspension in RPMI 1640 medium (Invitrogen, #21875-034) supplemented with 10% Fetal Bovine Serum (Invitrogen) at a density between 0.15×10^6 and 1.2×10^6 cells/mL. Cells were harvested by centrifugation, washed once with 1×PBS buffer (Invitrogen, #14190-094) and cell pellets were frozen in liquid nitrogen and subsequently stored at −80° C. Cells were homogenized in a Potter S homogenizer in lysis buffer: 50 mM Tris-HCl, 0.8% NP40, 5% glycerol, 150 mM NaCl, 1.5 mM MgCl2, 25 mM NaF, 1 mM sodium vanadate, 1 mM DTT, pH 7.5. One complete EDTA-free tablet (protease inhibitor cocktail, Roche Diagnostics, 1873580) per 25 mL buffer was added. The material was dounced 10 times using a mechanized POTTER S, transferred to 50 mL falcon tubes, incubated for 30 minutes on ice and spun down for 10 minutes at 20,000 g at 4° C. (10,000 rpm in Sorvall SLA600, precooled). The supernatant was transferred to an ultracentrifuge (UZ)-polycarbonate tube (Beckmann, 355654) and spun for 1 hour at 100.000 g at 4° C. (33.500 rpm in Ti50.2, precooled). The supernatant was transferred again to a fresh 50 mL falcon tube, the protein concentration was determined by a Bradford assay (BioRad) and samples containing 50 mg of protein per aliquot were prepared. The samples were immediately used for experiments or frozen in liquid nitrogen and stored frozen at −80° C.
(§6) Cell lysate (approximately 50 mg protein per plate) was thawed in a water bath at room temperature and then stored on ice. To the thawed cell lysate 1×DP 0.8% NP40 buffer containing protease inhibitors (1 tablet for 25 mL buffer; EDTA-free protease inhibitor cocktail; Roche Diagnostics 1873580) was added in order to reach a final protein concentration of 10 mg/mL total protein. The diluted cell lysate was stored on ice. Mixed Molt4/Ramos lysate was prepared by combining one volume of Molt4 lysate and two volumes of Ramos lysate (ratio 1:2).
(§7) To a 96 well filter plate (Multiscreen HTS, BV Filter Plates, Millipore #MSBVN1250) were added per well: 100 μL affinity matrix (3% beads slurry), […], of compound solution, and 50 μL of diluted lysate. […]

[3] = biological target: T3, TYK2 (Homo sapiens, UniProt P29597); test: Kinobeads assay, TYK2; conditions: mixed Molt4/Ramos lysate, read-out: Inhibition values (IC50) TYK2
T3 construct: endogenous in cells; host or cells: Molt4 (ATCC CRL-1582) and Ramos (ATCC CRL-1596), mixed lysate 1:2
Protocol: as §2, §3, §1, §4, §5, §6, §7

T1 sequence (P23458 whole entry): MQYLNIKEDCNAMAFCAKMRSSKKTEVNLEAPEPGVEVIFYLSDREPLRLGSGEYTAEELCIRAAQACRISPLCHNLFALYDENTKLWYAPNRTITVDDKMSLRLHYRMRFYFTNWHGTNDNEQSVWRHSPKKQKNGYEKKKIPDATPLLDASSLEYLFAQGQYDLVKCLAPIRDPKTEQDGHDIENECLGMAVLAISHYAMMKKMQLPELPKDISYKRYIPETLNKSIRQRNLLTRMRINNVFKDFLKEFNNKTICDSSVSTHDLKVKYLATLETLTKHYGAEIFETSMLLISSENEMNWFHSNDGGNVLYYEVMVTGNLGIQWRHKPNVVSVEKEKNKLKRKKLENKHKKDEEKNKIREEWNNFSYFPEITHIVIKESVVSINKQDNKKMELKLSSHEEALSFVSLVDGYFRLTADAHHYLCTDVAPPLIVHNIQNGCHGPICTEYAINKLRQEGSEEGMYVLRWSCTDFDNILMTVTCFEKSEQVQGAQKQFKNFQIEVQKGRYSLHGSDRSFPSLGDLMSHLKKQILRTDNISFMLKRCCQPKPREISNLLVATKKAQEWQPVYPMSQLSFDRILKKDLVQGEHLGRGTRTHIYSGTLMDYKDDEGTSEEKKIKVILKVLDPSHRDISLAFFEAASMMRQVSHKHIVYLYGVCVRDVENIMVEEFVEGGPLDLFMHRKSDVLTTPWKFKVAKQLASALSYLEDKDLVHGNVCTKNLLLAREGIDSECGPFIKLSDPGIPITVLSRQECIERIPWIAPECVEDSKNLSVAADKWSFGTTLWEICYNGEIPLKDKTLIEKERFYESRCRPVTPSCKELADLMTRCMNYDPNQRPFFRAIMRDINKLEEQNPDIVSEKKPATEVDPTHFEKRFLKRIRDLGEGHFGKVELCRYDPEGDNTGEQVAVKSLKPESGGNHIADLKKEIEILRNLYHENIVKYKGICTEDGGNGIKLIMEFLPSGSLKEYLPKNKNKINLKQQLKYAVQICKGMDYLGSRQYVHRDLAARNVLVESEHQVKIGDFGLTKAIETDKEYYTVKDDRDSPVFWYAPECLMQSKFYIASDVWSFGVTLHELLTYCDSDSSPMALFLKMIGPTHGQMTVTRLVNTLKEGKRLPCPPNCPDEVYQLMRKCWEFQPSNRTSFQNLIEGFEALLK
T2 sequence (O60674 whole entry): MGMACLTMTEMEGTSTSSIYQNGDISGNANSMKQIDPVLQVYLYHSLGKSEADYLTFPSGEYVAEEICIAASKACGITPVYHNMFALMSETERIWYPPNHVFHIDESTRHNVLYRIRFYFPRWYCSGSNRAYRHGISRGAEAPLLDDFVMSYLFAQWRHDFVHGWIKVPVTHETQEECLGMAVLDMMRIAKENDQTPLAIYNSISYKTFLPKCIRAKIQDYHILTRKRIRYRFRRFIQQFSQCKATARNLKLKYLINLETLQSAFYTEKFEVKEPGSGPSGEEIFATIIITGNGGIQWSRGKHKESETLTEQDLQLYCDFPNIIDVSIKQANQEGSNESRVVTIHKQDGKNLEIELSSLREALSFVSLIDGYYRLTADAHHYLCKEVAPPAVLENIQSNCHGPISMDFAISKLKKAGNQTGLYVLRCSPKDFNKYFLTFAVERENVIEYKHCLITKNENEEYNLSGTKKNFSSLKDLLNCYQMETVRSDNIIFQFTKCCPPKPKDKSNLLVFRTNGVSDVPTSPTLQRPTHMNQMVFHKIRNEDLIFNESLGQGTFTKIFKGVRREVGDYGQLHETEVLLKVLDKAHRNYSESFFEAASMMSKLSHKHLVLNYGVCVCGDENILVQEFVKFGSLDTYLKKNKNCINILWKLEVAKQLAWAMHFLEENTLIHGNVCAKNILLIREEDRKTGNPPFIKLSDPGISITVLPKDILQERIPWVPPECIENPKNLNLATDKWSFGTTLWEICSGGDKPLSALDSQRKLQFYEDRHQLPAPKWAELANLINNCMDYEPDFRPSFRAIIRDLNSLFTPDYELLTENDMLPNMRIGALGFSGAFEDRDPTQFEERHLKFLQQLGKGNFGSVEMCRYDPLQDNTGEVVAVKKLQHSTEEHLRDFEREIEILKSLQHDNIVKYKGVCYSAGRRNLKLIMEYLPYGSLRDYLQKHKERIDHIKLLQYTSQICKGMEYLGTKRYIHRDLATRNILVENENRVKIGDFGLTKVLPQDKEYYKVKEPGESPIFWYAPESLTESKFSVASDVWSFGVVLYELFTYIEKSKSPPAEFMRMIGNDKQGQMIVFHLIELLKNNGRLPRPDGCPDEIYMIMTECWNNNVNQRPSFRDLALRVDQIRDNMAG
T3 sequence (P29597 whole entry): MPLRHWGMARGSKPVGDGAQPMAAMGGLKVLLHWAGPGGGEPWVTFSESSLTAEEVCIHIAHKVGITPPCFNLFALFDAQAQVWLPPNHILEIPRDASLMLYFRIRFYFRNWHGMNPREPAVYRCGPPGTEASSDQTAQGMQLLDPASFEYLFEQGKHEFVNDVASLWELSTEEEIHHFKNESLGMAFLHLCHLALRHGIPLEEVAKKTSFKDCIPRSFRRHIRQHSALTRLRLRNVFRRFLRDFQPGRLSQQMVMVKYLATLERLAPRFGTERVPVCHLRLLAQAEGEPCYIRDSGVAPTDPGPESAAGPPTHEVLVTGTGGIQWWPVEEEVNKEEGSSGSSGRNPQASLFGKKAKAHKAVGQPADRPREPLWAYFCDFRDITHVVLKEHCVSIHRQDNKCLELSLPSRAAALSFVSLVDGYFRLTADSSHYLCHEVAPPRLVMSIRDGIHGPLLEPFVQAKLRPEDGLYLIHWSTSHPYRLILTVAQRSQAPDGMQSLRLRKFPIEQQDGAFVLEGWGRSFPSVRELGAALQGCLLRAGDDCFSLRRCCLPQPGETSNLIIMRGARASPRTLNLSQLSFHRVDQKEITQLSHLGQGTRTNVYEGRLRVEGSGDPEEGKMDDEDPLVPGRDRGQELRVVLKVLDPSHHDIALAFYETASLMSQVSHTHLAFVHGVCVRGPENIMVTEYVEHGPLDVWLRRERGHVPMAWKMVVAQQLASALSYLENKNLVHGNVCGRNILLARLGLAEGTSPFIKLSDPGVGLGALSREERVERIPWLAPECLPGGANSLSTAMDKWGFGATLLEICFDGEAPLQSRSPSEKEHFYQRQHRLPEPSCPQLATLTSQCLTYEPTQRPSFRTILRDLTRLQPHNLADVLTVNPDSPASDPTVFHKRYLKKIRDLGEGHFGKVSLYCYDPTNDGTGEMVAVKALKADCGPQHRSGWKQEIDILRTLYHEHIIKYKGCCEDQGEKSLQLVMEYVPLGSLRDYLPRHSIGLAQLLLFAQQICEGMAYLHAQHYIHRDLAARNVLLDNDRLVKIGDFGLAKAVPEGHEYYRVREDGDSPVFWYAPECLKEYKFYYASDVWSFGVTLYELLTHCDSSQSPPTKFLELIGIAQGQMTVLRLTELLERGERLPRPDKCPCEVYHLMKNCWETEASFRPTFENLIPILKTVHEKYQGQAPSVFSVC

| Structure (SMILES) | IC50 [1] [nM] | IC50 [2] [nM] | IC50 [3] [nM] |
| --- | --- | --- | --- |
| CN1CCC(n2cc(Nc3ncc(Cl)c(N[C@H](CO)c4ccccc4)n3)cn2)C1=O (stereo partly drawn) [Compound 135] | 100 to 1000 | 1000 to 10000 | 1000 to 10000 |
| O=C(Cn1cc(Nc2ncc(Cl)c(N[C@H](CO)c3cccnc3)n2)cn1)N1CCOCC1 [Compound 104] | 100 to 1000 | 1000 to 10000 | 100 to 1000 |
| CC(C)NC(=O)Cn1cc(Nc2ncc(Cl)c(N[C@H](CO)c3ccccc3F)n2)cn1 [Compound 115] | 100 to 1000 | 1000 to 10000 | 100 to 1000 |
| CN(C)C(=O)C(Nc1nc(Nc2cnn(CCO)c2)ncc1Cl)c1ccccc1F (stereo not drawn) [Compound 127] | 1000 to 10000 | 1000 to 10000 | 1000 to 10000 |
| CCC(Nc1nc(Nc2cnn(C)c2)ncc1Cl)c1ccccc1F (stereo not drawn) [Compound 125] | 1000 to 10000 | 1000 to 10000 | 1000 to 10000 |
| NC(=O)Cn1cc(Nc2ncc(Cl)c(NC(CO)c3ccccc3Cl)n2)cn1 (stereo not drawn) [Compound 118] | 100 to 1000 | 1000 to 10000 | 100 to 1000 |
| CCn1cc(Nc2ncc(Cl)c(N[C@H](CO)c3cccc(OC)c3)n2)cn1 [Compound 96] | 1000 to 10000 | ≥ 10000 | 1000 to 10000 |
| CNC(=O)Cn1cc(Nc2ncc(Cl)c(N[C@H](CO)c3cccc(-c4cnn(C)c4)c3)n2)cn1 [Compound 154] | 1000 to 10000 | 1000 to 10000 | 100 to 1000 |
| Cn1cc(Nc2ncc(Cl)c(N[C@H](CO)c3ccccc3)n2)cn1 [Compound 4] | 1000 to 10000 | 1000 to 10000 | 1000 to 10000 |
| CNC(=O)Cn1cc(Nc2ncc(Cl)c(NC(CO)c3ccccc3C(F)(F)F)n2)cn1 (stereo not drawn) [Compound 131] | 1000 to 10000 | 1000 to 10000 | 100 to 1000 |
| CNC(=O)Cn1cc(Nc2ncc(F)c(N[C@H](CO)c3cc(F)ccc3F)n2)cn1 [Compound 148] | 100 to 1000 | 1000 to 10000 | 100 to 1000 |
| Cn1cc(-c2cccc(C(CO)Nc3nc(Nc4cnn(CCO)c4)ncc3Cl)c2)cn1 (stereo not drawn) [Compound 94] | 1000 to 10000 | ≥ 10000 | ≥ 10000 |
| CCC(Nc1nc(Nc2cnn(CC(N)=O)c2)ncc1Cl)c1ccccc1F (stereo not drawn) [Compound 126] | 100 to 1000 | 1000 to 10000 | 1000 to 10000 |
| Cn1cc(-c2cc(F)cc([C@@H](CO)Nc3nc(Nc4cnn(CCO)c4)ncc3Cl)c2)cn1 [Compound 152] | 100 to 1000 | 1000 to 10000 | 1000 to 10000 |
| CNC(=O)Cn1cc(Nc2ncc(F)c(N[C@H](CO)c3ccccc3)n2)cn1 [Compound 111] | 1000 to 10000 | ≥ 10000 | 1000 to 10000 |
| Cn1cc(Nc2ncc(C(F)(F)F)c(N[C@H](CO)c3ccccc3)n2)cn1 [Compound 6] | > 10000 | ≥ 10000 | ≥ 10000 |
| OCCn1cc(Nc2ncc(F)c(N[C@H](CO)c3cc(F)ccc3F)n2)cn1 [Compound 147] | 100 to 1000 | 100 to 1000 | 100 to 1000 |
